# From patent US6583309B1 (University of Medicine and Dentistry of New Jersey, priority 1999, dated 2003)
# Biological target: TAR RNA
# Assay: In vitro binding of resin-bound compounds to TAR RNA (OD260 of unbound RNA)
# Parameters: species or system HIV
# Conditions: in vitro assay; compounds of formula I on TentaGel beads incubated with TAR RNA overnight at 4° C. in TK buffer; read-out: Kd (nM), binding constants
# Outline: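 Ten beads of TentaGel-bound compound in TK buffer were incubated overnight at 4 °C with T7-transcribed 29-residue TAR RNA ([…]). Unbound RNA in the supernatant was quantified by OD260. KD was calculated from equilibrium RNA concentrations assuming simple bimolecular binding.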
row,Molecule,Kd
1,N=C(N)NCCC[C@H](N)COC(=O)N(CCCCCCCN)CC(=O)N[C@@H](CCCCN)COC(N)=O [Compound DR],460 nM
2,"NCCCCCCCN(CC(=O)N[C@@H](CCCCN)COC(N)=O)C(=O)OC[C@H](N)CCC(N)=O [Compound DS, Carbamic acid 6-amino-2-{2-[(2-amino-4-carbamoyl-butoxycarbonyl)-(7-amino-heptyl)-amino]-acetylamino}-hexyl ester]",3150 nM
3,"N=C(N)NCCC[C@H](N)COC(=O)N[C@@H](CCCCN)C(=O)N[C@H](CCCCN)COC(N)=O [Compound DT, Carbamic acid 6-amino-2-[6-amino-2-(2-amino-5-guanidino-pentyloxycarbonylamino)-hexanoylamino]-hexyl ester]",215 nM
4,"NCCCC[C@H](COC(N)=O)NC(=O)[C@H](CCCCN)NC(=O)OC[C@H](N)CCC(N)=O [Compound DU, Carbamic acid 6-amino-2-[6-amino-2-(2-amino-4-carbamoyl-butoxycarbonylamino)-hexanoylamino]-hexyl ester]",639 nM

# System: TAR-TAT complex formation in HL3T1 cells
# Assay: In vivo assay: inhibition of TAR-TAT complex formation in HL3T1 cells (HIV-1 LTR promoter, CAT reporter)
# Type: cell-based
# Conditions: compounds of formula V transfected into HL3T1 cells with pSV2Tat and pAL, CAT and luciferase read after 48 hour, read-out: Kd (nM), binding constants
# Description: Binding of compounds of formula I and V to TAR RNA was measured by evaluating their inhibition of TAR-TAT complex formation in the presence of increasing levels of the compound to be tested. The compounds of formula I were tested in an in vitro assay; the compounds of formula V were tested in an in vivo assay.
# Cells were grown in 2 mL of Dulbecco's modified Eagle medium (DMEM) supplemented with 10% fetal calf serum in 60 mm dishes at 37° C. in 5% CO2 in a tissue culture incubator. Cells were refreshed by 2 mL DMEM before transfection. Transfection was started by dropwise addition of 250 μL 2×HeBS (Hepes-buffered saline) and then keeping at room temperature for 10 minutes. Approximately 10 μg of plasmids (pSV2Tat and pAL) and increasing amounts of the Compounds DV, DW, DX or DY were transfected in the presence of CaCl2 (final concentration 125 mM) and the cells were incubated for 4 hour at 37° C. in a tissue culture incubator. The medium was then discarded and the cells were subjected to glycerol (1.5 mL of 15%) shock for 45 seconds. Finally the cells were washed twice with PBS (5 mL) and were grown in 3 mL DMEM. The cells were harvested after 48 hour post-transfection with changing with fresh DMEM at 24 hours and lysed in reporter lysis buffer (Promega). Aliquots were used for CAT and luciferase assays. Both activities were normalized to protein concentration determined by using a modified Bradford assay (Bio-Rad).
row,Molecule,Kd
1,N=C(N)NCCC[C@@H](CNC(=O)N[C@@H](CCCNC(=N)N)CNC(=O)N[C@H](CN)CCCCN)NC(N)=O,500 nM
2,"N=C(N)NCCC[C@@H](CNC(=O)N[C@@H](CCCCN)CNC(=O)N[C@H](CN)CCCNC(=N)N)NC(N)=O [Compound DV, 1-{5-Amino-1-[3-(1-aminomethyl-4-guanidino-butyl)-ureidomethyl]-pentyl}-3-(5-guanidino-2-ureido-pentyl)-urea]",500 nM
3,"N=C(N)NCCC[C@@H](CNC(=O)N[C@@H](CCCCN)CNC(=O)N[C@H](CN)CCCCN)NC(N)=O [Compound DW, 1-{5-Amino-1-[3-(5-amino-1-aminomethyl-pentyl)-ureidomethyl]-pentyl}-3-(5-guanidino-2-ureido-pentyl)-urea]",50 nM
4,N=C(N)NCCC[C@@H](CNC(=O)N[C@@H](CCCCN)CNC(=O)NCCN)NC(N)=O [Compound DY],150 nM

# Biological target: TAR RNA
# Assay: not given
# Conditions: TAT binding to TAR RNA, Dingwall et al. (1990); cited from earlier work
row,Molecule,Kd
1,TAT: virally encoded HIV trans-acting regulatory protein that specifically recognizes TAR RNA,12 nM
